Measured values from PubChem BioAssay (NCI).
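How tested: cells in 96-well plates exposed to compound for 48 hours at five concentrations. The concentration for full growth arrest is given as TGI.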

What was measured:
Assay in all cases: growth of human tumour cells (NCI), 48 h
NCI-H460 lung = test system: NCI-H460 lung
786-0 renal = test system: 786-0 renal
T-47D breast = test system: T-47D breast
A498 renal = test system: A498 renal
DU-145 prostate = test system: DU-145 prostate
NCI-H226 lung = test system: NCI-H226 lung
HT29 colon = test system: HT29 colon
OVCAR-5 ovarian = test system: OVCAR-5 ovarian
HOP-62 NSCLC = test system: HOP-62 NSCLC
LOX IMVI melanoma = test system: LOX IMVI melanoma

SMILES	TGI (NCI-H460 lung) [µM]	TGI (786-0 renal) [µM]	TGI (T-47D breast) [µM]	TGI (A498 renal) [µM]	TGI (DU-145 prostate) [µM]	TGI (NCI-H226 lung) [µM]	TGI (HT29 colon) [µM]	TGI (OVCAR-5 ovarian) [µM]	TGI (HOP-62 NSCLC) [µM]	TGI (LOX IMVI melanoma) [µM]
CN(C)C=NCC(O)c1ccccc1 (stereo unspecified)	> 100	> 100	> 100	> 100	> 100	> 100	> 100	> 100	> 100	> 100
Cc1ccc2c(=O)cc(Cc3csc4ccccc34)[nH]c2n1	–	> 100	73.2	> 100	> 100	85.8	> 100	> 100	> 100	40.6
CCOC(=O)C(NC(=O)CC)(Nc1ccc(S(=O)(=O)Nc2ccc(OC)nn2)cc1)C(F)(F)F (stereo unspecified)	> 100	> 100	> 100	> 100	> 100	> 100	> 100	> 100	> 100	> 100
O=c1[nH]nc(Cc2ccc(Cl)cc2)n1/N=C/c1c[nH]c2ccccc12	> 100	> 100	> 100	> 100	> 100	> 100	> 100	> 100	> 100	> 100
COc1ccc(Cn2c3ccc([N+](=O)[O-])cc3c(=O)n2Cc2ccccn2)cc1	> 100	> 100	77.4	> 100	> 100	> 100	> 100	> 100	> 100	> 100
N#CCc1nc2cc(C(F)(F)F)ccc2s1	–	> 100	> 100	> 100	> 100	> 100	> 100	> 100	> 100	80.2
Cc1cc2oc3c(ccc(=O)n3C)c(=O)c2c(C)c1Cl	> 100	–	> 100	> 100	> 100	> 100	> 100	> 100	> 100	> 100
CC1(C)CN=CC(C)(OCc2ccccc2)C(=O)NC(C)(C)CN=CC(C)(OCc2ccccc2)C(=O)N1 (stereo unspecified)	> 10	> 10	> 10	> 10	> 10	> 10	> 10	> 10	> 10	> 10
O=C1CCCCN1C(=O)c1ccc([N+](=O)[O-])cc1	> 100	> 100	> 100	> 100	> 100	> 100	> 100	> 100	> 100	> 100
COC12C=CC(CC1)C(C)(C)C2OS(C)(=O)=O (stereo unspecified)	> 100	> 100	> 100	> 100	> 100	> 100	> 100	> 100	> 100	–
